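Following 48 hours of exposure in 96-well plates, responses at five concentrations were used to interpolate endpoints linearly. TGI: concentration producing complete growth inhibition.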
How the values were obtained:
Experiment in all cases: NCI tumour cell line growth inhibition, 48 h
A549 NSCLC = system: A549 NSCLC
MOLT-4 leukemia = system: MOLT-4 leukemia
SN12C renal = system: SN12C renal
SF-268 CNS = system: SF-268 CNS
SR leukemia = system: SR leukemia
DLD-1 colon = system: DLD-1 colon
SK-MEL-28 melanoma = system: SK-MEL-28 melanoma
SF-295 CNS = system: SF-295 CNS
SF-539 CNS = system: SF-539 CNS
IGROV1 ovarian = system: IGROV1 ovarian
HCT-116 colon = system: HCT-116 colon
DMS 273 small cell lung = system: DMS 273 small cell lung
SK-MEL-5 melanoma = system: SK-MEL-5 melanoma
SK-MEL-2 melanoma = system: SK-MEL-2 melanoma
UACC-62 melanoma = system: UACC-62 melanoma
SK-OV-3 ovarian = system: SK-OV-3 ovarian
OVCAR-5 ovarian = system: OVCAR-5 ovarian
ACHN renal = system: ACHN renal
SW-620 colon = system: SW-620 colon
HOP-92 NSCLC = system: HOP-92 NSCLC
OVCAR-3 ovarian = system: OVCAR-3 ovarian
SNB-75 CNS = system: SNB-75 CNS
NCI-H226 lung = system: NCI-H226 lung
HOP-18 NSCLC = system: HOP-18 NSCLC
KM12 colon = system: KM12 colon
786-0 renal = system: 786-0 renal
HT29 colon = system: HT29 colon
SNB-78 CNS = system: SNB-78 CNS
MALME-3M melanoma = system: MALME-3M melanoma
NCI-H23 lung = system: NCI-H23 lung
LXFL 529 NSCLC = system: LXFL 529 NSCLC
HOP-62 NSCLC = system: HOP-62 NSCLC
XF 498 CNS = system: XF 498 CNS
A498 renal = system: A498 renal
RPMI-8226 leukemia = system: RPMI-8226 leukemia
M19-MEL melanoma = system: M19-MEL melanoma
LOX IMVI melanoma = system: LOX IMVI melanoma
UO-31 renal = system: UO-31 renal
NCI-H522 lung = system: NCI-H522 lung
DMS 114 small cell lung = system: DMS 114 small cell lung
EKVX NSCLC = system: EKVX NSCLC
U251 CNS = system: U251 CNS
HCC-2998 colon = system: HCC-2998 colon
M14 melanoma = system: M14 melanoma
CCRF-CEM leukemia = system: CCRF-CEM leukemia
K-562 leukemia = system: K-562 leukemia
UACC-257 melanoma = system: UACC-257 melanoma
RXF-631 renal = system: RXF-631 renal
TK-10 renal = system: TK-10 renal
SNB-19 CNS = system: SNB-19 CNS
NCI-H460 lung = system: NCI-H460 lung
COLO 205 colon = system: COLO 205 colon
OVCAR-4 ovarian = system: OVCAR-4 ovarian
OVCAR-8 ovarian = system: OVCAR-8 ovarian
CAKI-1 renal = system: CAKI-1 renal
HL-60(TB) leukemia = system: HL-60(TB) leukemia
HCT-15 colon = system: HCT-15 colon
RXF 393 renal = system: RXF 393 renal
KM20L2 colon = system: KM20L2 colon
SN12K1 renal = system: SN12K1 renal
P388/ADR leukemia = system: P388/ADR leukemia
P388 leukemia = system: P388 leukemia
NCI/ADR-RES ovarian = system: NCI/ADR-RES ovarian
MCF7 breast = system: MCF7 breast

With `CC1CC[C@]2(C(=O)O)CCC3(C)C(=CCC4[C@@]5(C)CC[C@H](OS(=O)(=O)c6ccccc6)C(C)(C)C5CC[C@]43C)[C@@H]2[C@H]1C` (stereo not given in full) the TGI (A549 NSCLC) was over 100 µM, the TGI (MOLT-4 leukemia) was over 100 µM and the TGI (SN12C renal) was over 100 µM. The TGI (SF-268 CNS) was over 100 µM, the TGI (SR leukemia) was over 100 µM and the TGI (DLD-1 colon) was over 100 µM. The TGI (SK-MEL-28 melanoma) was over 100 µM, the TGI (SF-295 CNS) was over 100 µM and the TGI (SF-539 CNS) was over 100 µM. The TGI (IGROV1 ovarian) was over 100 µM, the TGI (HCT-116 colon) was over 100 µM and the TGI (DMS 273 small cell lung) was over 100 µM. For the same compound, the TGI (SK-MEL-5 melanoma) was over 100 µM, the TGI (SK-MEL-2 melanoma) was over 100 µM and the TGI (UACC-62 melanoma) was over 100 µM. It also gave a TGI (SK-OV-3 ovarian) of over 100 µM, a TGI (OVCAR-5 ovarian) of over 100 µM and a TGI (ACHN renal) of over 100 µM. For the same compound, the TGI (SW-620 colon) was over 100 µM, the TGI (HOP-92 NSCLC) was over 100 µM and the TGI (OVCAR-3 ovarian) was over 100 µM. The TGI (SNB-75 CNS) was over 100 µM, the TGI (NCI-H226 lung) was over 100 µM and the TGI (HOP-18 NSCLC) was over 100 µM. The TGI (KM12 colon) was over 100 µM, the TGI (786-0 renal) was over 100 µM and the TGI (HT29 colon) was over 100 µM. The TGI (SNB-78 CNS) was over 100 µM, the TGI (MALME-3M melanoma) was over 100 µM and the TGI (NCI-H23 lung) was over 100 µM. The TGI (LXFL 529 NSCLC) was over 100 µM, the TGI (HOP-62 NSCLC) was over 100 µM and the TGI (XF 498 CNS) was over 100 µM. For the same compound, the TGI (A498 renal) was over 100 µM, the TGI (RPMI-8226 leukemia) was over 100 µM and the TGI (M19-MEL melanoma) was over 100 µM. It also gave a TGI (LOX IMVI melanoma) of over 100 µM, a TGI (UO-31 renal) of over 100 µM and a TGI (NCI-H522 lung) of over 100 µM. For the same compound, the TGI (DMS 114 small cell lung) was over 100 µM, the TGI (EKVX NSCLC) was over 100 µM and the TGI (U251 CNS) was over 100 µM. The TGI (HCC-2998 colon) was over 100 µM, the TGI (M14 melanoma) was over 100 µM and the TGI (CCRF-CEM leukemia) was over 100 µM. The TGI (K-562 leukemia) was over 100 µM, the TGI (UACC-257 melanoma) was over 100 µM and the TGI (RXF-631 renal) was over 100 µM. The TGI (TK-10 renal) was over 100 µM, the TGI (SNB-19 CNS) was over 100 µM and the TGI (NCI-H460 lung) was over 100 µM. The TGI (COLO 205 colon) was over 100 µM, the TGI (OVCAR-4 ovarian) was over 100 µM and the TGI (OVCAR-8 ovarian) was over 100 µM. For the same compound, the TGI (CAKI-1 renal) was over 100 µM.

`O=C(CC1Sc2ccccc2NC1=O)Nc1ccc(Cl)cc1` (stereo not given) gave a TGI (A549 NSCLC) of over 100 µM, a TGI (MOLT-4 leukemia) of over 100 µM and a TGI (SN12C renal) of over 100 µM. It also gave a TGI (HL-60(TB) leukemia) of over 100 µM, a TGI (SF-268 CNS) of over 100 µM and a TGI (SR leukemia) of over 100 µM. For the same compound, the TGI (DLD-1 colon) was over 100 µM, the TGI (SK-MEL-28 melanoma) was over 100 µM and the TGI (SF-295 CNS) was over 100 µM. The TGI (SF-539 CNS) was over 100 µM, the TGI (IGROV1 ovarian) was over 100 µM and the TGI (HCT-116 colon) was over 100 µM. The TGI (DMS 273 small cell lung) was over 100 µM, the TGI (SK-MEL-5 melanoma) was over 100 µM and the TGI (SK-MEL-2 melanoma) was over 100 µM. It also gave a TGI (HCT-15 colon) of over 100 µM, a TGI (UACC-62 melanoma) of over 100 µM and a TGI (SK-OV-3 ovarian) of over 100 µM. It also gave a TGI (OVCAR-5 ovarian) of over 100 µM, a TGI (ACHN renal) of over 100 µM and a TGI (SW-620 colon) of over 100 µM. It also gave a TGI (HOP-92 NSCLC) of 67.2 µM, a TGI (OVCAR-3 ovarian) of over 100 µM and a TGI (SNB-75 CNS) of over 100 µM. It also gave a TGI (NCI-H226 lung) of over 100 µM, a TGI (HOP-18 NSCLC) of over 100 µM and a TGI (KM12 colon) of over 100 µM. It also gave a TGI (RXF 393 renal) of 67.2 µM, a TGI (HT29 colon) of over 100 µM and a TGI (SNB-78 CNS) of over 100 µM. The TGI (MALME-3M melanoma) was over 100 µM, the TGI (NCI-H23 lung) was over 100 µM and the TGI (KM20L2 colon) was over 100 µM. It also gave a TGI (LXFL 529 NSCLC) of over 100 µM, a TGI (HOP-62 NSCLC) of over 100 µM and a TGI (XF 498 CNS) of over 100 µM. The TGI (A498 renal) was over 100 µM, the TGI (RPMI-8226 leukemia) was over 100 µM and the TGI (M19-MEL melanoma) was over 100 µM. For the same compound, the TGI (LOX IMVI melanoma) was over 100 µM, the TGI (UO-31 renal) was over 100 µM and the TGI (NCI-H522 lung) was over 100 µM. The TGI (DMS 114 small cell lung) was over 100 µM, the TGI (EKVX NSCLC) was over 100 µM and the TGI (U251 CNS) was over 100 µM. The TGI (HCC-2998 colon) was over 100 µM, the TGI (M14 melanoma) was over 100 µM and the TGI (CCRF-CEM leukemia) was over 100 µM. It also gave a TGI (K-562 leukemia) of over 100 µM, a TGI (UACC-257 melanoma) of over 100 µM and a TGI (RXF-631 renal) of over 100 µM. It also gave a TGI (TK-10 renal) of over 100 µM, a TGI (SNB-19 CNS) of over 100 µM and a TGI (NCI-H460 lung) of over 100 µM. For the same compound, the TGI (COLO 205 colon) was over 100 µM, the TGI (OVCAR-4 ovarian) was 47.3 µM and the TGI (OVCAR-8 ovarian) was over 100 µM. For the same compound, the TGI (CAKI-1 renal) was over 100 µM.

`O=C1C=CC(=O)c2c(Cl)ccc(O)c21` gave a TGI (SN12K1 renal) of over 55.2 µM, a TGI (A549 NSCLC) of over 100 µM and a TGI (MOLT-4 leukemia) of 23.2 µM. The TGI (SN12C renal) was 39 µM, the TGI (HL-60(TB) leukemia) was 18.5 µM and the TGI (SF-268 CNS) was 33.4 µM. It also gave a TGI (DLD-1 colon) of 27.6 µM, a TGI (SK-MEL-28 melanoma) of 33 µM and a TGI (SF-295 CNS) of over 57 µM. The TGI (SF-539 CNS) was over 56.8 µM, the TGI (IGROV1 ovarian) was 21 µM and the TGI (HCT-116 colon) was 23.5 µM. It also gave a TGI (DMS 273 small cell lung) of 25.4 µM, a TGI (SK-MEL-5 melanoma) of 33.1 µM and a TGI (SK-MEL-2 melanoma) of 97.5 µM. For the same compound, the TGI (HCT-15 colon) was 39.1 µM, the TGI (UACC-62 melanoma) was 30.9 µM and the TGI (SK-OV-3 ovarian) was over 100 µM. It also gave a TGI (OVCAR-5 ovarian) of over 89.3 µM, a TGI (SW-620 colon) of 31.4 µM and a TGI (HOP-92 NSCLC) of 6.96 µM. The TGI (OVCAR-3 ovarian) was 29.1 µM, the TGI (SNB-75 CNS) was over 63.4 µM and the TGI (P388/ADR leukemia) was 1.96 µM. It also gave a TGI (NCI-H226 lung) of over 100 µM, a TGI (HOP-18 NSCLC) of 33.4 µM and a TGI (KM12 colon) of over 100 µM. For the same compound, the TGI (RXF 393 renal) was 29.7 µM, the TGI (HT29 colon) was 44.9 µM and the TGI (SNB-78 CNS) was 41.2 µM. For the same compound, the TGI (MALME-3M melanoma) was 32.7 µM, the TGI (NCI-H23 lung) was 17.1 µM and the TGI (KM20L2 colon) was 18.5 µM. For the same compound, the TGI (HOP-62 NSCLC) was over 100 µM, the TGI (XF 498 CNS) was 32.7 µM and the TGI (A498 renal) was over 100 µM. It also gave a TGI (RPMI-8226 leukemia) of 23.4 µM, a TGI (M19-MEL melanoma) of 30 µM and a TGI (LOX IMVI melanoma) of 37.2 µM. The TGI (UO-31 renal) was over 100 µM, the TGI (NCI-H522 lung) was 26.8 µM and the TGI (DMS 114 small cell lung) was 33.6 µM. The TGI (EKVX NSCLC) was 43 µM, the TGI (U251 CNS) was over 100 µM and the TGI (HCC-2998 colon) was over 100 µM. For the same compound, the TGI (P388 leukemia) was 3.84 µM, the TGI (CCRF-CEM leukemia) was over 100 µM and the TGI (K-562 leukemia) was over 74 µM. For the same compound, the TGI (UACC-257 melanoma) was 29.8 µM, the TGI (NCI/ADR-RES ovarian) was 42.1 µM and the TGI (MCF7 breast) was 31.1 µM. The TGI (SNB-19 CNS) was over 100 µM, the TGI (NCI-H460 lung) was over 100 µM and the TGI (COLO 205 colon) was 25.8 µM. It also gave a TGI (OVCAR-4 ovarian) of 32.5 µM, a TGI (OVCAR-8 ovarian) of 50.2 µM and a TGI (CAKI-1 renal) of 16.1 µM.

— PubChem BioAssay (NCI)
